According to US8952024B2, “Herbicidal pyrimidone derivatives” (E I du Pont de Nemours and Company, priority 2009, dated 2015):

Experiments:
Format in all cases: in vivo
[1] = test system: bermudagrass (Cynodon dactylon); assay: Test B pre-/postemergence plant response; conditions: for Bermudagrass plant response rating (0 to 100 scale): 62 g ai/ha, postemergence, 0 is no effect, 100 is complete control; for Plant response rating, Bermudagrass: Postemergence
Outline: (§1)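 Compound in solvent + surfactant applied pre-em (loam/sand) or post-em (plants 2–18 cm, peat medium); greenhouse hold 13–15 days; visual 0–100 control score.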

[2] = test system: cocklebur (Xanthium strumarium); assay: Test B pre-/postemergence plant response; conditions: for Plant response rating, Cocklebur: Postemergence
Outline: as §1

[3] = test system: goosegrass (Eleusine indica); assay: Test B pre-/postemergence plant response; conditions: for Plant response rating, Goosegrass: Postemergence
Outline: as §1

[4] = test system: green foxtail (Setaria viridis); assay: Test B pre-/postemergence plant response; conditions: for Plant response rating, Foxtail, Green: Postemergence
Outline: as §1

[5] = test system: lambsquarters (Chenopodium album); assay: Test B pre-/postemergence plant response; conditions: for Plant response rating, Lambsquarters: Postemergence
Outline: as §1

[6] = test system: large crabgrass (Digitaria sanguinalis); assay: Test B pre-/postemergence plant response; conditions: for Plant response rating, Crabgrass, Large: Postemergence
Outline: as §1

[7] = test system: morningglory (Ipomoea coccinea); assay: Test B pre-/postemergence plant response; conditions: for Plant response rating, Morningglory: Postemergence
Outline: as §1

[8] = test system: wheat (Triticum aestivum); assay: Test B pre-/postemergence plant response; conditions: for Plant response rating, Wheat: Postemergence
Outline: as §1

wild oat (Avena fatua) = assay: Test B pre-/postemergence plant response; conditions: for Plant response rating, Oat, Wild: Postemergence
Outline: as §1

[9] = test system: yellow nutsedge (Cyperus esculentus); assay: Test B pre-/postemergence plant response; conditions: for Plant response rating, Nutsedge, Yellow: Postemergence
Outline: as §1

[10] = test system: barnyardgrass (Echinochloa crus-galli); assay: Test B flooded paddy test; conditions: for Plant response rating, Flood, Barnyardgrass: 250 g ai/ha, flooded paddy test, visual rating on 0 to 100 scale (0 no effect, 100 complete control) after 13 to 15 days; for Plant response rating, Barnyardgrass: Flood (flooded paddy test), 62 g ai/ha, scale of 0 to 100 where 0 is no effect and 100 is complete control, 13 to 15 days
Outline: (§2)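 Post-flood paddy application: compounds are introduced into water 3 cm deep over the soil, reaching plants at the 2-leaf stage. The water level is maintained, and after 13–15 days under greenhouse conditions, response is judged by eye relative to controls, where 100 means complete control.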

[11] = test system: umbrella sedge (Cyperus difformis); assay: Test B flooded paddy test; conditions: for Plant response rating, Flood, Sedge, Umbrella: 250 g ai/ha, flooded paddy test, visual rating on 0 to 100 scale (0 no effect, 100 complete control) after 13 to 15 days; for Plant response rating, Sedge, Umbrella: Flood (flooded paddy test), 62 g ai/ha, scale of 0 to 100 where 0 is no effect and 100 is complete control, 13 to 15 days
Outline: as §2

[12] = 31 g ai/ha, 0 to 100 scale (0 no effect, 100 complete control)
[13] = 125 g ai/ha, scale 0 to 100 (0 no effect, 100 complete control)
[14] = 250 g ai/ha, scale 0 to 100 (0 no effect, 100 complete control), 13 to 15 days
[15] = 62 g ai/ha, postemergence, 0 is no effect, 100 is complete control, 13 to 15 days

SMILES: COCCCn1c(-c2cccc(Br)c2)ncc(C(=O)C2=C(O)CCCC2=O)c1=O [Compound 140]
- Bermudagrass plant response rating (0 to 100 scale) ([1]; 13 to 15 days): 75
- Plant response rating, Bermudagrass [1, 12]: 60
- Plant response rating, Bermudagrass [1, 13]: 85
- Plant response rating, Bermudagrass [1, 14]: 90
- Cocklebur plant response rating (0 to 100 scale) [2, 15]: 15
- Plant response rating, Cocklebur [2, 12]: 0
- Plant response rating, Cocklebur [2, 13]: 65
- Plant response rating, Cocklebur [2, 14]: 95
- Goosegrass plant response rating (0 to 100 scale) [3, 15]: 65
- Plant response rating, Goosegrass [3, 12]: 45
- Plant response rating, Goosegrass [3, 13]: 70
- Plant response rating, Goosegrass [3, 14]: 85
- Foxtail, Green plant response rating (0 to 100 scale) [4, 15]: 60
- Plant response rating, Foxtail, Green [4, 12]: 45
- Plant response rating, Foxtail, Green [4, 13]: 85
- Plant response rating, Foxtail, Green [4, 14]: 95
- Lambsquarters plant response rating (0 to 100 scale) [5, 15]: 60
- Plant response rating, Lambsquarters [5, 12]: 45
- Plant response rating, Lambsquarters [5, 13]: 75
- Plant response rating, Lambsquarters [5, 14]: 80
- Crabgrass, Large plant response rating (0 to 100 scale) [6, 15]: 65
- Plant response rating, Crabgrass, Large [6, 12]: 50
- Plant response rating, Crabgrass, Large [6, 13]: 80
- Plant response rating, Crabgrass, Large [6, 14]: 90
- Morningglory plant response rating (0 to 100 scale) [7, 15]: 60
- Plant response rating, Morningglory [7, 12]: 0
- Plant response rating, Morningglory [7, 13]: 65
- Plant response rating, Morningglory [7, 14]: 65
- Wheat plant response rating (0 to 100 scale) [8, 15]: 5
- Plant response rating, Wheat [8, 12]: 5
- Plant response rating, Wheat [8, 13]: 10
- Plant response rating, Wheat [8, 14]: 15
- Oat, Wild plant response rating (0 to 100 scale) (wild oat (Avena fatua); [15]): 5
- Plant response rating, Oat, Wild (wild oat (Avena fatua); [12]): 0
- Plant response rating, Oat, Wild (wild oat (Avena fatua); [13]): 10
- Plant response rating, Oat, Wild (wild oat (Avena fatua); [14]): 40
- Nutsedge, Yellow plant response rating (0 to 100 scale) [9, 15]: 45
- Plant response rating, Nutsedge, Yellow [9, 12]: 10
- Plant response rating, Nutsedge, Yellow [9, 13]: 65
- Plant response rating, Nutsedge, Yellow [9, 14]: 75
- Plant response rating, Flood, Barnyardgrass [10]: 45
- Plant response rating, Barnyardgrass [10]: 20
- Plant response rating, Flood, Sedge, Umbrella [11]: 85
- Plant response rating, Sedge, Umbrella [11]: 75

SMILES: O=C1CCCC(O)=C1C(=O)c1cnc(-c2cccs2)n(C2CCCCC2)c1=O [Compound 189]
- Bermudagrass plant response rating (0 to 100 scale) ([1]; 13 to 15 days): 15
- Plant response rating, Bermudagrass [1, 12]: 10
- Plant response rating, Bermudagrass [1, 13]: 65
- Plant response rating, Bermudagrass [1, 14]: 70
- Plant response rating, Cocklebur [2, 12]: 60
- Plant response rating, Cocklebur [2, 13]: 100
- Plant response rating, Cocklebur [2, 14]: 100
- Plant response rating, Goosegrass [3, 12]: 60
- Plant response rating, Goosegrass [3, 13]: 90
- Plant response rating, Goosegrass [3, 14]: 90
- Plant response rating, Foxtail, Green [4, 12]: 65
- Plant response rating, Foxtail, Green [4, 13]: 90
- Plant response rating, Foxtail, Green [4, 14]: 95
- Plant response rating, Lambsquarters [5, 12]: 98
- Plant response rating, Lambsquarters [5, 13]: 100
- Plant response rating, Lambsquarters [5, 14]: 100
- Plant response rating, Crabgrass, Large [6, 12]: 75
- Plant response rating, Crabgrass, Large [6, 13]: 95
- Plant response rating, Crabgrass, Large [6, 14]: 100
- Plant response rating, Morningglory [7, 12]: 100
- Plant response rating, Morningglory [7, 13]: 100
- Plant response rating, Morningglory [7, 14]: 100
- Plant response rating, Wheat [8, 12]: 0
- Plant response rating, Wheat [8, 13]: 0
- Plant response rating, Wheat [8, 14]: 0
- Plant response rating, Oat, Wild (wild oat (Avena fatua); [12]): 5
- Plant response rating, Oat, Wild (wild oat (Avena fatua); [13]): 10
- Plant response rating, Oat, Wild (wild oat (Avena fatua); [14]): 25
- Plant response rating, Nutsedge, Yellow [9, 12]: 20
- Plant response rating, Nutsedge, Yellow [9, 13]: 55
- Plant response rating, Nutsedge, Yellow [9, 14]: 65
- Plant response rating, Flood, Barnyardgrass [10]: 70
- Plant response rating, Barnyardgrass [10]: 30
- Plant response rating, Flood, Sedge, Umbrella [11]: 100
- Plant response rating, Sedge, Umbrella [11]: 95
